The conditions of series [1]: Kyte & Doolittle; cited from earlier work.
A further series has as its system human ESCs (H9). As to the kind of experiment: Cell adhesion (CellTiter-Glo) with soluble heparin or chondroitinase ABC. The class given is cell-based. The following applies: 1 hour; for hESC binding in the presence of soluble heparin: soluble heparin 0.5 mg/mL. As to the method:
To determine the effect of a soluble GAG on hESC binding to GBPs, hESCs were plated onto Matrigel-coated surfaces, vitronectin-coated surfaces, or surfaces presenting the heparin-binding peptide […] (SEQ ID NO: 1) in the presence or absence of soluble heparin (0.5 mg/mL). After 1 hour, the surfaces were washed and the cells lysed. The cell lysates were used to determine approximate cell numbers using Cell Titer Glo (Promega). The ratio of the mean luminescence of the cell lysates of cells plated in the presence of heparin versus those without heparin was expressed as percent cell binding for each surface.
To determine if glycosaminoglycans (GAGs) are required for GBP binding, human ESCs (H9) cultured on Matrigel were dissociated using an enzyme-free, Hanks'-based cell dissociation buffer (Sigma) for 10-15 minutes. Cells were resuspended in DMEM/F12 (Gibco), or DMEM/F12 supplemented with 2 units/mL chondroitinase ABC (Sigma), or 500 ug/mL heparin (Sigma). Cells treated with the GAG-degrading enzymes were incubated for 1 hour in suspension at 37° C. Cell suspensions were seeded onto Matrigel-coated surfaces, recombinant vitronectin-coated surfaces (10 μg/mL, R&D Systems), or SAMs presenting the peptide […] (SEQ ID NO: 1) at a 5% surface density. After 1 hour, surfaces were washed 3 times with PBS and the cells were lysed with M-PER buffer (Thermo Fisher Scientific, Inc., Rockford, Ill.). The cell lysate was mixed with CellTiter-Glo (Promega) to determine the number of viable cells in culture based on the presence of ATP. The luminescence was measured on 20/20^n luminometer (Turner Biosystems, Inc., Sunnyvale Calif.). • Cell Growth: […]
(In general: Cellular ATP, detected with luciferase, serves as a proxy for viable cell number.)

The test system of series [2] is hESCs. The series is described as follows: Culture on other chemically defined surfaces (streptavidin plates, polyacrylamide gels, glass coverslips). The class given is cell-based, human. The text has this: Moreover, some hESCs were passaged to streptavidin-coated plates treated with biotinylated vitronectin GBP (SEQ ID NO:1) or polyacrylamide gels cross-linked to vitronectin GBP (SEQ ID NO:1).

Another series concerns pluripotent stem cells. As to the kind of experiment: Number of cell divisions by fluorescent cell staining. It is filed as cell-based, human.
Series [3] deals with hESCs. As to the kind of experiment: Flow cytometry of pluripotent cell-specific markers after three passages on SAMs. The class given is cell-based, human. The following applies: for pluripotent cell-specific marker expression (Oct-4, SSEA-3, SSEA-4) after 3 passages: 3 passages on SAMs. Here is the method: The density of the peptides on the surface varied from 0.5% to 25% (see, FIG. 1).
Regardless of the nature of the chemically defined surface or peptide(s) attached thereto, about 5×10^4 cells/ml were manually passaged to a fresh chemically defined surface every 5-7 days (i.e., at confluency) after treatment with an Enzyme-Free Cell Dissociation Buffer (Sigma; St. Louis, Mo.; a phosphate-buffered saline (PBS)+ethylenediamine tetraacetic acid (EDTA) 0.02% wt/vol) for 10-15 minutes. After three passages (about 21 days), the cells were evaluated for pluripotent cell-specific markers by flow cytometry.
hESCs were dissociated with 0.05% trypsin-EDTA with 2% chicken serum (Gibco). Cell surface marker staining was performed in PBS containing 2% BSA (wt/vol) at 4° C. for 30 minutes with directly conjugated antibodies against alkaline phosphatase (R&D Systems), Tra 1-60 (BD Biosciences), Tra 1-81 (BD Biosciences), SSEA-4 (BD Biosciences), SSEA-3 (BD Biosciences), SSEA-1 (R&D Systems) followed by a 30 minute fixation with 2% formaldehyde/PBS at room temperature.
For intracellular marker staining, hESCs were fixed with 2% formaldehyde/PBS at room temperature for 30 minutes. For Oct-4 staining, cells were permeabilized with saponin permeabilization buffer (SPB; 0.1% saponin, 0.1% BSA wt/vol in PBS) for 30 minutes at room temperature followed by incubation with an Oct-4 PE-conjugated antibody overnight. Cells were then washed 2 times with SPB before analysis.
Flow cytometry data was obtained using a FACSCalibur™ (BD Biosciences) and analyzed using FlowJo Software (Tree Star, Inc.; Ashland, Oreg.). The percentage of positive cells was established by comparing experimental cells to partially differentiated hESCs. Gating for positive and negative populations was established by analyzing the bimodal peaks of partially differentiated hESCs.
In general terms: In flow cytometry, cells or beads pass a laser one at a time.

The test system of series [4] is hES cells (H9 and H13) and vector-free iPS cells (DF19-9). The series is described as follows: Cell growth over two passages (Cell Counting Kit-8). The class given is cell-based, human. Here is the method:
hESCs (H9) were cultured on Matrigel, vitronectin, polylysine, […] (SEQ ID NO: 1), or KGRGDS (SEQ ID NO: 5) over two passages in mTeSR media supplemented with 5 μm ROCK inhibitor. Cell counts were calculated at each time point using Cell Counting Kit-8 (Dojindo Molecular Technologies, Inc., Rockville, Md.).
(In general: Formazan colour is commonly taken as a measure of viable cells.)

The test system of series [5] is hESCs. The series is described as follows: Initial cell survival on SAMs with heregulin supplement. The following applies: 10 ng/ml in mTeSR1. It is filed as cell-based, human. Here is the method: hESCs were passaged to SAMs of peptide-AT conjugates on gold in mTeSR™1 optionally supplemented with 10 ng/ml heregulin-β1 (Peprotech; Rocky Hill, N.J.) and 5 μM Y-27632 (Calbiochem; San Diego, Calif.). […] Some surfaces presented peptide-AT conjugates of only vitronectin GBP (SEQ ID NO:1), fibronectin GBP (SEQ ID NO:2) or bone sialoprotein GBP (SEQ ID NO:3) Alternatively, some surfaces presented peptide-AT conjugates of only the integrin-binding peptide (SEQ ID NO:5), another bioactive peptide derived from fibronectin (SEQ ID NO:6), the FGF receptor binding peptide (SEQ ID NO:4), the laminin-derived bioactive peptide (SEQ ID NO:7), […] (SEQ ID NO: 8) or […] (SEQ ID NO: 9). Furthermore, some surfaces presented separate peptide-AT conjugates of the integrin-binding peptide (SEQ ID NO:5) and FGF receptor binding peptide (SEQ ID NO:4); the integrin-binding peptide (SEQ ID NO:5) and vitronectin GBP (SEQ ID NO:1); the integrin-binding peptide (SEQ ID NO:5) and bioactive peptide derived from fibronectin (SEQ ID NO:6); and the vitronectin GBP (SEQ ID NO:1) and […] (SEQ ID NO: 9). The density of the peptides on the surface varied from 0.5% to 25% (see, FIG. 1).

Series [6] concerns undifferentiated hESCs (Oct-4 positive) and differentiated cells derived from embryoid bodies (Oct-4 negative). The series is described as follows: Effect of ROCK inhibitor on cellular adhesion. It is filed as cell-based, human. As to the method: Effect of ROCK inhibitor on cellular adhesion: A mixture of undifferentiated hESCs (Oct-4 positive) and differentiated cells derived from embryoid bodies (Oct-4 negative) was seeded onto self-assembled monolayer surfaces presenting the GBP […] (SEQ ID NO: 1) and the integrin binding peptide KGRGDS (SEQ ID NO: 5). For some experiments, cells were seeded onto polyacrylamide gels or glass coverslips presenting the […] (SEQ ID NO: 47) peptide. The cells were grown for 24 hours in mTeSR medium containing 5 μM ROCK inhibitor Y-27632 and then switched to mTeSR medium without ROCK inhibitor for an additional 24 hours. The cells were fixed and stained for Oct-4 and counterstained with phalloidin and DAPI. In some instances, cells were added to the surfaces without ROCK inhibitor.

[7] abbreviates: 24 hours with 5 μM, then 24 hours without.

Ends that are not written are not given here.

Turning to `NC(=O)C[C@H](N)C(=O)O` [N], the Hydropathy index in series [1] is given as −3.5.
heparin [reference compound]: in the series with human ESCs (H9), the “hESC binding in the presence of soluble heparin” value was “inhibited adhesion”.
Take “CGKKQRFRHRNRKG (not fully specified (C-terminus); also: conjugated to polyacrylamide or glass; listed as Homo sapiens) [peptide conjugated to polyacrylamide gels or glass coverslips]”: the “cell adhesion and growth on non-SAM substrate” value in the series on hESCs [2] (compared with SAMs) is “supported cell adhesion and growth comparable to SAMs”.
With `N[C@@H](Cc1ccc(O)cc1)C(=O)O` [Y], in series [1], the Hydropathy index is given as −1.3.
`N[C@@H](CC(=O)O)C(=O)O` [D]: in series [1], the Hydropathy index was −3.5.
As for `CC(C)[C@H](N)C(=O)O` [V, valine], in series [1], the Hydropathy index was 4.2.
For the compound “KGRGDS (not fully specified (C-terminus); listed as Homo sapiens)”, the “number of cell divisions” value in the series on pluripotent stem cells is “fewer cell divisions”. Besides, the support of self-renewal entry in the series with hESCs [3] (3 passages) is “insufficient to support self-renewal”. In addition, the “pluripotent cell-specific marker expression (Oct-4, SSEA-3, SSEA-4) after 3 passages” value was “significantly lower levels of pluripotent cell-specific markers” with hESCs [3] and “fewer cells in the population displayed markers of pluripotency” in the series on hESCs [3] (listed as RGD-presenting surfaces). Also, the “cell growth rate on surface” value in the series on hESCs [3] (compared with GAG-binding peptide surfaces) is reported as “much more slowly”. Further, in series [4], the “plating efficiency after 24 hours” value was “lowest plating efficiency”.
For the compound `N[C@@H](Cc1c[nH]cn1)C(=O)O` [H, histidine], in series [1], the Hydropathy index was −3.2.
Consider `C[C@@H](O)[C@H](N)C(=O)O` [T], for which the Hydropathy index in series [1] was −0.7.
As for `N[C@@H](CO)C(=O)O` [S], in series [1], the Hydropathy index is −0.8.
With heregulin, the initial cell survival result in the series with hESCs [5] was “modest improvement”.
Turning to `N=C(N)NCCC[C@H](N)C(=O)O` [R, arginine], the Hydropathy index in series [1] is reported as −4.5.
As to `CSCC[C@H](N)C(=O)O` [M, methionine], in series [1], the Hydropathy index is listed as 1.9.
With `N[C@@H](CCC(=O)O)C(=O)O` [E], the Hydropathy index in series [1] is on record as −3.5.
As for `C[C@@H](N)[C@H]1CC[C@H](C(=O)Nc2ccncc2)CC1.Cl.Cl` [ROCK inhibitor, (+)-(R)-trans-4-(1-aminoethyl)-N-(4-pyridyl)cyclohexanecarboxamide dihydrochloride], in series [6] (setting [7]), the “attachment of differentiated cells after removal of ROCK inhibitor” value was “remained attached and viable”; the “attachment of undifferentiated cells after removal of the ROCK inhibitor” value is recorded as “significant detachment”. The “Oct-4 positive undifferentiated cells among adherent cells when seeded without the ROCK inhibitor” value in series [6] (cells added to the surfaces without ROCK inhibitor) is “few of these cells were Oct-4 positive”.
Regarding `N[C@@H](CS)C(=O)O` [C], the Hydropathy index in series [1] was 2.5.
As to `C[C@H](N)C(=O)O` [A, alanine], the Hydropathy index in series [1] was 1.8.
With `CC[C@H](C)[C@H](N)C(=O)O` [I, isoleucine], the Hydropathy index in series [1] is given as 4.5.
On to `N[C@@H](Cc1c[nH]c2ccccc12)C(=O)O` [W], for which the Hydropathy index in series [1] is listed as −0.9.
In the case of “vitronectin: recombinant vitronectin-coated surfaces (10 μg/mL, R&D Systems)”, the “number of cell divisions” value in the series on pluripotent stem cells was “fewer cell divisions”. Also, in the series on human ESCs (H9) (2 units/mL chondroitinase ABC, 5% surface density), the “adhesion of cells treated with chondroitinase ABC” value was “maintained their ability to adhere”. Besides, the “hESC binding in the presence of soluble heparin” value with human ESCs (H9) is on record as “not”. Further, the “plating efficiency after 24 hours” value in series [4] is listed as “equivalent”. Further, in series [4] (two passages, mTeSR with ROCK inhibitor), the “cell numbers after each passage” value is recorded as “Increased cell numbers”.
`NCCCC[C@H](N)C(=O)O` [K, lysine]: the Hydropathy index in series [1] is on record as −3.9.
With “biotinylated SEQ ID NO:1: streptavidin-coated plates treated with biotinylated vitronectin GBP (SEQ ID NO:1) (GKKQRFRHRNRKG; not fully specified (C-terminus); also: biotinylated, site not given here; listed as Homo sapiens)”, the “cell adhesion and growth on non-SAM substrate” value in the series on hESCs [2] (compared with SAMs) is “supported cell adhesion and growth, although not to the same extent”. The “cell death when ROCK inhibitor is omitted” value with hESCs [2] (streptavidin-coated plates) is “without observable increase in cell death”. Besides, the colony spreading result in the series on hESCs [2] (streptavidin-coated plates, compared with SAMs) is reported as “lower than on SAMs”.
Take `N[C@@H](Cc1ccccc1)C(=O)O` [F, phenalalanine]: the Hydropathy index in series [1] was 2.8.

The values above are taken from patent publication US9006394B2, “Peptide-presenting surfaces for long-term culture of pluripotent cells” (Wisconsin Alumni Research Foundation, priority 2008, dated 2015).
